No end group written: not given here.
Legend:
WT-KBM7 cells = experiment: Cell cycle profile by PI staining and FACS (diploidization); format: cell-based, human; conditions: treated overnight during one week, PI incorporation and FACS (FIG. 6D)
Protocol: For cell cycle analysis, 1 million cells were fixed with 70% ethanol for 24 hours, washed with PBS/1% BSA/0.1% Tween and incubated with RNase for 30 minutes. Nuclei were stained with 5 μg/ml PI (propidium iodide, Sigma) for 10 minutes prior to FACS analysis (BD FACSCalibur Flow Cytometer).
The prerequisite for effective GT genetic screens is a haploid system where monoallelic disruptive GT integration results in gene knock-out (KO). Therefore, KBM7 cells, a chronic myeloid leukemia cell line with near haploid karyotype, were chosen for the generation of the BRD4 reporter cell lines as previously described^15. […] Propidium iodide (PI) incorporation and FACS analysis were used to assay the cell cycle profile of several REDS clones in order to select a haploid clone suitable for GT-based genetic screen. […] REDS1 was the only clonal cell line with haploid karyotype (see FIG. 6B), also confirmed by metaphase spreads (see FIG. 6C).

[1] = molecular target: T1, chromatin-associated MTHFD1 (Homo sapiens, UniProt P11586); experiment: Western blot of chromatin associated proteins: MTHFD1; format: cell-based; conditions: HAP1 cells, two-hour treatment, 0.5 μM (FIG. 2C)
T1 construct: endogenous in cells; host or cells: HAP1
T1 sequence (P11586 1-935): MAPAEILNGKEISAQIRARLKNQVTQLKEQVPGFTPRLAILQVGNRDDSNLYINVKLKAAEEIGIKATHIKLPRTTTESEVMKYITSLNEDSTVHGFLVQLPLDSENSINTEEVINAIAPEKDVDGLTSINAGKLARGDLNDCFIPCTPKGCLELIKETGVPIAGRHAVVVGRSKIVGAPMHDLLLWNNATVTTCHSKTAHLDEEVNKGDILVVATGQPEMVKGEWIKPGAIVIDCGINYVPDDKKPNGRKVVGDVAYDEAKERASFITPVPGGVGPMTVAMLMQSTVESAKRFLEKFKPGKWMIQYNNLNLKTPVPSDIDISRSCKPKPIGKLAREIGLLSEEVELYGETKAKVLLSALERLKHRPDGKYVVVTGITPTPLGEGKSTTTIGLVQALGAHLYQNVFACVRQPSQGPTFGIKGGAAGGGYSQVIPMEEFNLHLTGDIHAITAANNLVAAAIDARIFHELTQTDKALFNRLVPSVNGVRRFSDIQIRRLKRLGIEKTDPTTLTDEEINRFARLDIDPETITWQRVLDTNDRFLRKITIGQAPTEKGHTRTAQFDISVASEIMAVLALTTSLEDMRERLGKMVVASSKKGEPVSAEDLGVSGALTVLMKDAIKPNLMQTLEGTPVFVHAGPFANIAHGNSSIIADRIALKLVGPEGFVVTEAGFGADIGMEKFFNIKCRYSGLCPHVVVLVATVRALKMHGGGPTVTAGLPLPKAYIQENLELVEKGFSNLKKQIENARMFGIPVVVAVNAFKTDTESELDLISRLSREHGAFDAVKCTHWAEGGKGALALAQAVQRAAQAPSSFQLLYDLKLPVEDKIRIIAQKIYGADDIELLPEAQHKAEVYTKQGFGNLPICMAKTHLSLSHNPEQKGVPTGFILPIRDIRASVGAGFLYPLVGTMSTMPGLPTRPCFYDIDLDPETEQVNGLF
Protocol: (§1) For Western Blot, proteins were separated on polyacrylamide gels with SDS running buffer (50 mM Tris, 380 mM Glycine, 7 mM SDS) and transferred to nitrocellulose blotting membranes. All membranes were blocked with blocking buffer (5% (m/v) milk powder (BioRad) in TBST (Tris-Buffered Saline with Tween: 50 mM Tris (tris (hydroxymethyl)aminomethane), 150 mM NaCl, 0.05% (v/v) Tween 20, adjusted to pH 7.6). Proteins were probed with antibodies against BRD4 (ab128874, 1:1000, Abcam), Actin (ab16039, 1:1000, Abcam), MTHFD1 (ab70203, Abcam; H120, Santa Cruz; A8, Santa Cruz; all used at 1:1000), GFP (G10362, 1:1000, Life Technology), RCC1 (C-20, 1:1000, Santa Cruz), β-Tubulin (T-4026, 1:1000, Sigma), SHMT1 (ab186130, 1:1000, Abcam) and H2B (ab156197, 1:1000, Abcam) and detected by HRP (horseradish peroxidase) conjugated donkey anti-rabbit IgG antibody (ab16284, 1:5000, Abcam) or donkey anti-mouse IgG antibody (Pierce) and visualized with the Pierce ECL Western Blotting substrate (Amersham), according to the provided protocol.
Cell fractionation and chromatin enrichment was carried out as previously described^29 with some adaptations. […]

[2] = test system: MTHFD1 binding to genomic loci; experiment: ChIP-Seq of MTHFD1 genomic binding in HAP1 cells; format: cell-based, human; conditions: 2 h treatment (1 μM per FIG. 16A)
Protocol: Three 15 cm dishes with cells at 70-80% of confluency were used for one ChIP experiment. Briefly, cells were cross-linked with 1% formaldehyde for 10 minutes at room temperature, and then quenched with 125 mM glycine for 5 minutes at room temperature. Then, cells were washed with cold PBS, collected in 15 ml tubes and washed again with cold PBS by centrifugation at 1200 rpm for 5 minutes at 4° C. and finally snap frozen.
ChIP was performed as described^18 by using BRD4 (Bethyl Laboratories, Inc.) and MTHFD1 (sc-271413, Santa Cruz) antibodies. In brief, crosslinked cell lysates were sonicated in order to shred the chromatin into 200-500 bp fragments. Fragmented chromatin was incubated overnight at 4° C. with antibodies, followed by 2 hours at 4° C. with pre-blocked Dynabeads Protein G (ThermoFisher Scientific). […]
Reads containing adapters were trimmed using Skewer^19 and aligned to the hg19/GRCh37 assembly of the Human genome using Bowtie2^20 with the “—very-sensitive” parameter and duplicate reads were marked and removed with sambamba. Library quality was assessed with the phantomPeakQualtools scripts^21. For visualization exclusively, the inventors generated genome browser tracks with the genomeCoverageBed command in BEDTools^22 and normalized such that each value represents the read count per base pair per million mapped and filtered reads. […]

GST-BRD4 (full length) = molecular target: T2, GST-BRD4 (full length) (Homo sapiens, UniProt O60885); experiment: AlphaLISA assay of acetylated MTHFD1 peptides with GST-BRD4; format: binding
T2 construct: AlphaLISA assay performed with the indicated MTHFD1 acetylated peptides and GST-BRD4 (full length); made in house
Protocol: The Amplified Luminescent Proximity Homogenous Assay (AlphaLISA©), a homogenous and chemiluminescence-based method, was performed to explore the direct interaction of BRD4 and acetylated substrates.
Briefly, in this assay, the biotinylated MTHFD1 acetylated peptides (possible substrates) are captured by streptavidin-coupled donor beads. GST-tagged BRD4 (produced as previously described^15) is recognized and bound by an anti-GST antibody conjugated with an acceptor bead. In case of interaction between BRD4 and one acetylated peptide, the proximity between the partners (<200 nm) allows that the excitation (680 nm wavelength) of a donor bead induces the release of a singlet oxygen molecule (^1O2) that then triggers a cascade of energy transfer in the acceptor bead, resulting in a sharp peak of light emission at 615 nm.
GST-BRD4 and each of the MTHFD1 acetylated peptides were incubated together. After 30 minutes, GSH (Glutathione) Acceptor beads (PerkinElmer) were added and after another incubation time of 30 minutes, Streptavidin-conjugated donor beads (PerkinElmer) were added. The signal (alpha counts) was read by the EnVision 2104 Multilabel Reader (PerkinElmer).

BRD4-MTHFD1 interaction = molecular target: T3, BRD4-MTHFD1 interaction (Homo sapiens, UniProt O60885+P11586); experiment: MTHFD1 pull-down on HAP1 whole cell lysates (BRD4-MTHFD1 interaction); format: binding; conditions: HAP1 whole cell lysates treated with 50 μM (FIG. 9I)
T3 construct: MTHFD1 pull-down performed on HAP1 whole cell lysates treated with 50 μM (S)-JQ1, MTX; endogenous in cells; host or cells: HAP1
Protocol: For immunoprecipitation, 1 mg of protein extract was incubated overnight at 4° C. with 10 μl of Dynabeads (either A or G, Life technology) preincubated for 2 hours at 4° C. with 1 μg of BRD4 (ab128874, Abcam), MTHFD1 (A8, Santa Cruz) or GFP (G10362, Life Technology) antibodies.

[3] = test system: MTHFD1 nuclear localization; experiment: Nuclear vs cytosol fractionation Western blot in HAP1 cells; format: cell-based, human; conditions: 72 hours (FIG. 9D)
Protocol: as §1

Compound: Cc1sc2c(c1C)C(c1ccc(Cl)cc1)=N[C@H](CC(=O)OC(C)(C)C)c1nnc(C)n1-2 [(R)-JQ1]
- diploidization of WT-KBM7 (cell cycle profile) (WT-KBM7 cells): Only (S)-JQ1 treatment induced WT-KBM7 diploidization

Compound: Cc1sc2c(c1C)C(c1ccc(Cl)cc1)=N[C@@H](CC(=O)NCCCCNC(=O)COc1cccc3c1C(=O)N(C1CCC(=O)NC1=O)C3=O)c1nnc(C)n1-2 (some centres unmarked) [dBET1]
- MTHFD1 on chromatin after degronimid treatment [1]: MTHFD1 was lost from chromatin

Compound: Cc1sc2c(c1C)C(c1ccc(Cl)cc1)=N[C@@H](CC(=O)NCCCCCCCCNC(=O)COc1cccc3c1C(=O)N(C1CCC(=O)NC1=O)C3=O)c1nnc(C)n1-2 (some centres unmarked) [dBET6]
- MTHFD1 on chromatin after degronimid treatment [1]: MTHFD1 was lost from chromatin
- MTHFD1 binding to distinct genomic loci [2]: binding was lost

Compound: MTHFD1(47-66)K56ac: synthetic biotinylated MTHFD1 peptide, residues 47-66, acetylated at lysine 56 (DDSNLYINVK(Ac)LKAAEEIGIK; also: biotinylated, site not given here; UniProt P11586 47-66, looked up, fragment)
- increase of the alphaLISA signal (GST-BRD4 (full length); peptide used at high concentration (FIG. 9F)): ~5 fold
- alphaLISA peptide titration with GST-BRD4 (GST-BRD4 (full length); titration (FIG. 9G)): dose-responsive manner
- effect on BRD4-MTHFD1 interaction in MTHFD1 pull-down (BRD4-MTHFD1 interaction): not able to inhibit the BRD4-MTHFD1 interaction

Compound: ginkgolic acid
- redistribution of MTHFD1 between nucleus and cytoplasm [3]: did not cause a redistribution of MTHFD1 between the nucleus and cytoplasm

Reference: patent US20190262355A1, “COMBINATION OF A BRD4 INHIBITOR AND AN ANTIFOLATE FOR THE THERAPY OF CANCER” (CeMM-Forschungszentrum für Molekulare Medizin GmbH, priority 2016, published 2019)
